These are literature values, as cited in patent publication US6643591B1, “Use of computational and experimental data to model organic compound reactivity in cytochrome P450 mediated reactions and to optimize the design of pharmaceuticals” (University of Pittsburgh, priority 1998, dated 2003).

In the data set the test system is CYP1A2. The settings on record: O-deethylation favored; cited from earlier work.

Regarding `CCOc1ccc2ccc(=O)oc2c1` [7-ethoxycoumarin], the “Energy difference between O-deethylation and aromatic hydroxylation pathways” value is “about 1.8 kcal/mol”.
